{
  "source": "patent US8846762B2",
  "about": "“Benzopyran and benzoxepin PI3K inhibitor compounds and methods of use” (Genentech, Inc., priority 2008, dated 2014)",
  "key": {"[1]": {"assay": "Body weight change over the course of treatment in the xenograft study, as an indicator of safety", "type": "in vivo, Taconic nude mice", "details": "50 and 100 mg/kg, orally daily for 21 days"}, "pAkt (phospho-Akt)": {"tested_on": "pAkt (phospho-Akt)", "assay": "phospho AKT induction assay", "type": "cell-based", "details": "in each study (Example 284); cells treated with an EC80 of the compound", "procedure": "In a 6-well tissue culture plate cells were seeded at 5×10^5 cells per well overnight. […] Determination of protein concentration was performed using the Pierce BCA Protein Assay Kit (Rockford, Ill.). Levels of pAkt (Ser^473) and total Akt were assessed using bead kits from Biosource (Carlsbad, Calif.) and the Luminex Bio-Plex system (Bio-Rad, Hercules, Calif.)."}},
  "data": [
    {"smiles": "CNC(=O)c1ccc2c(c1)OCCc1cc(C(=O)N(C)c3ccc(C(=O)N(C)C)cc3Cl)sc1-2", "note": "[Compound 223, N2-(2-chloro-4-(dimethylcarbamoyl)phenyl)-N2,N8-dimethyl-4,5-dihydrobenzo[b]thieno[2,3-d]oxepine-2,8-dicarboxamide]", "values": [
      {"measurement": "body weights compared with the group administered Vehicle", "setting": "[1]", "result": "did not significantly differ"},
      {"measurement": "pAkt (phospho-Akt), a potential biomarker of PI3K signal transduction disruption", "setting": "pAkt (phospho-Akt)", "result": "suppressed pAkt"}
    ]}
  ]
}
